Data from US20230292776A1, “GAS PHASE TREATMENT OF PRODUCE” (priority 2022, published 2023).

What was measured:
mandarins = experiment: Visible appearance of vapor-treated mandarins; assay type: in vivo, mandarin
Procedure: (§1) Example 1. The antifungal activity of diallyl disulfide (DADS) vapor against Penicillium digitatum (Pd) was tested in mandarins. All samples were wounded by puncturing with a screw and infected by dispensing 1000 Pd spores suspended in 10 μL of water into each wound. The test groups consisted of mandarins that were: untreated; dipped in a solution of 1 g/L of imazalil; and exposed for 72 hours to the vapor of 3 mL of DADS in a Petri dish.
Example 2. The antifungal activity of allyl isothiocyanate (AITC) and DADS vapor was tested against Pd and Penicillium italicum (Pi) in mandarins. All samples were wounded by puncturing with a screw. Mandarins were infected by dispensing either 1000 Pd spores or 1000 Pi spores suspended in 10 μL into the wound. The test groups consisted of mandarins that were: uninfected and untreated; uninfected and treated by dipping in a solution of 1 g/L of imazalil; infected with Pd and untreated; infected with Pd and exposed to AITC; infected with Pd and exposed to DADS; infected with Pi and untreated; infected with Pi and exposed to AITC; and infected with Pi and exposed to DADS. Exposure to AITC or DADS consisted of exposing the mandarins for 72 hours to the vapor of 3 mL of the respective compound dispensed in a Petri dish. […] DADS vapor reduced the incidence of Pd mold by 85% and Pi mold by 30% compared to the respective untreated/infected test groups. […] Both AITC and DADS were effective at preventing fungal growth. The inhibition from AITC was approximately 100%, with some changes in visible appearance.
(§2) Example 3. The antifungal activity of a reduced dose of AITC vapor against Pd in mandarins was tested. All samples were wounded by puncturing with a screw. Mandarins were infected by dispensing 1000 Pd spores suspended in 10 μL of water into each wound. The test groups consisted of mandarins that were: uninfected and untreated; infected with Pd and untreated; and exposed to the vapor of 500 μL of AITC in a Petri dish for 72 hours.
Example 4. The antifungal activity of a range of AITC vapor concentrations was tested against Pd in mandarins. All mandarins were wounded by puncturing with a screw and infected by dispensing 1000 Pd spores suspended in 10 μL of water in each wound. The fruit was then placed in an airtight container, a range of AITC volumes were disposed onto a Whatman filter paper disc, the disc was suspended in front of a battery-powered fan, and the container closed for 18 hours. The mandarins were then left at ambient temperature and high humidity for 6 days. The test groups were mandarins that were infected and untreated, and infected and treated with 62.5 μL 125 μL 250 μL and 500 μL on the filter paper disc. […]
Example 5. […] The test groups were then left at ambient temperature, high humidity, and assessed for Pd mold after 6 days. […]

[1] = system: Penicillium digitatum (Pd); experiment: Antifungal activity of vapor against Penicillium digitatum (Pd) in wounded, infected mandarins; assay type: in vivo; settings: for effect on Pd mold: Example 5, 125 μL, assessed after 6 days
Procedure: as §1
Example 2. The antifungal activity of allyl isothiocyanate (AITC) and DADS vapor was tested against Pd and Penicillium italicum (Pi) in mandarins. All samples were wounded by puncturing with a screw. Mandarins were infected by dispensing either 1000 Pd spores or 1000 Pi spores suspended in 10 μL into the wound. The test groups consisted of mandarins that were: uninfected and untreated; uninfected and treated by dipping in a solution of 1 g/L of imazalil; infected with Pd and untreated; infected with Pd and exposed to AITC; infected with Pd and exposed to DADS; infected with Pi and untreated; infected with Pi and exposed to AITC; and infected with Pi and exposed to DADS. Exposure to AITC or DADS consisted of exposing the mandarins for 72 hours to the vapor of 3 mL of the respective compound dispensed in a Petri dish.
as §2
Example 4. The antifungal activity of a range of AITC vapor concentrations was tested against Pd in mandarins. All mandarins were wounded by puncturing with a screw and infected by dispensing 1000 Pd spores suspended in 10 μL of water in each wound. The fruit was then placed in an airtight container, a range of AITC volumes were disposed onto a Whatman filter paper disc, the disc was suspended in front of a battery-powered fan, and the container closed for 18 hours. The mandarins were then left at ambient temperature and high humidity for 6 days. The test groups were mandarins that were infected and untreated, and infected and treated with 62.5 μL 125 μL 250 μL and 500 μL on the filter paper disc. […] FIG. 6 is a bar graph showing incidence (% infected) for the test groups.
Example 5. The antifungal activity of a range of AITC vapor exposure times was tested to determine the effects against Pd in mandarins. All samples were wounded by puncturing with a screw. Mandarins were infected by dispensing 1000 Pd spores suspended in 10 μL of water in the wound. The fruit was then placed in an airtight container, 125 μL of AITC was dispensed onto a Whatman filter paper disc, the disc suspended in front of a battery-powered fan, and the container closed for 15 minutes to 2 hours. The test groups were then left at ambient temperature, high humidity, and assessed for Pd mold after 6 days. The test groups consisted of mandarins that were: uninfected and untreated; infected and untreated; infected and treated with 0.5 g/L imazalil; infected, treated with 125 μL of AITC on the filter paper, and exposed to the vapor for 15 minutes, 30 minutes, 1 hour, and 2 hours.

| SMILES | fruit with spotting and darkening of the peel (mandarins; Example 5, 125 μL, 2 hour treatment) [%] | visible appearance of mandarins (mandarins; in vivo) | Pd infection ([1]; Example 3, mandarins, vapor of 500 μL in a Petri dish for 72 hours) | severity of Pd infection ([1]; Example 4, 62.5 μL on filter paper disc, airtight container with fan, 18 hours, 6 days) | effect on Pd mold ([1]; 15 minute exposure) | effect on Pd mold ([1]; 2 hour exposure) | visible appearance of mandarins (mandarins; Example 1, 72 hours vapor of 3 mL) | visible appearance of mandarins (mandarins; Example 2, 72 hours vapor of 3 mL) | reduction of the incidence of Pd mold compared to the untreated samples ([1]; Example 1, mandarins, 72 hours vapor of 3 mL in a Petri dish) [%] | reduction of the incidence of Pd mold compared to imazalil treated samples ([1]; Example 1, mandarins, 72 hours vapor of 3 mL, imazalil 1 g/L dip) [%] | reduction of the incidence of Pd mold compared to untreated/infected test group ([1]; Example 2, mandarins, 72 hours vapor of 3 mL in a Petri dish) [%] |
| --- | --- | --- | --- | --- | --- | --- | --- | --- | --- | --- | --- |
| C=CCN=C=S [AITC, allyl isothiocyanate] | 62.5 | visibly darker than untreated fruit | substantially prevented Pd infections | reduced the severity of infection relative to the untreated group | little effect on Pd mold | substantially eliminated the mold | – | – | – | – | – |
| C=CCSSCC=C [DADS, diallyl disulfide] | – | – | – | – | – | – | no visible degradation or discoloration | No difference in appearance | 95.8 | 19.1 | 85 |
